# Reference: ChEMBL document CHEMBL3046848, “Synthesis and biological evaluation of novel series of thieno[2,3-d]pyrimidine derivatives as anticancer and antimicrobial agents” (2013)
# Tests used:
# Format in all cases: functional
# Escherichia coli [1] = assay: Antimicrobial activity against Escherichia coli ATCC8739 assessed as growth inhibition after 48 hr by two-fold serial dilution method; details: ATCC8739, 48 h
# Pseudomonas aeruginosa [2] = assay: Antimicrobial activity against Pseudomonas aeruginosa ATCC9027 assessed as diameter of growth inhibition zone at 1 mg/ml after 24 hr by agar cup diffusion method; details: ATCC9027, 24 h, read-out: IZ
# Staphylococcus aureus [3] = assay: Antimicrobial activity against Staphylococcus aureus ATCC6538P assessed as diameter of growth inhibition zone at 1 mg/ml after 24 hr by agar cup diffusion method; details: read-out: IZ
# Candida albicans [4] = assay: Antimicrobial activity against Candida albicans ATCC2091 assessed as diameter of growth inhibition zone at 1 mg/ml after 48 hr by agar cup diffusion method; details: ATCC2091, 48 h, read-out: IZ
# Escherichia coli [5] = assay: Antimicrobial activity against Escherichia coli ATCC8739 assessed as diameter of growth inhibition zone at 1 mg/ml after 24 hr by agar cup diffusion method; details: ATCC8739, 24 h, read-out: IZ
# Pseudomonas aeruginosa [6] = assay: Antimicrobial activity against Pseudomonas aeruginosa ATCC9027 assessed as growth inhibition after 48 hr by two-fold serial dilution method; details: ATCC9027, 48 h
# Staphylococcus aureus [7] = assay: Antimicrobial activity against Staphylococcus aureus ATCC6538P assessed as growth inhibition after 48 hr by two-fold serial dilution method
# TK-10 = assay: Growth inhibition of Homo sapiens (human) TK10 cells at 10 uM after 48 hr by SRB assay; details: TK-10, 48 h, read-out: GI
# IGROV-1 = assay: Growth inhibition of Homo sapiens (human) IGROV1 cells at 10 uM after 48 hr by SRB assay; details: IGROV-1, 48 h, read-out: GI
# SK-MEL-2 = assay: Growth inhibition of Homo sapiens (human) SK-MEL-2 cells at 10 uM after 48 hr by SRB assay; details: SK-MEL-2, 48 h, read-out: GI
# SF-295 = assay: Growth inhibition of Homo sapiens (human) SF295 cells at 10 uM after 48 hr by SRB assay; details: SF-295, 48 h, read-out: GI
# Candida albicans [8] = assay: Antimicrobial activity against Candida albicans ATCC2091 assessed as growth inhibition after 48 hr by two-fold serial dilution method; details: ATCC2091, 48 h
MIC (Escherichia coli [1]) [µg/mL],MIC (Pseudomonas aeruginosa [6]) [µg/mL],MIC (Staphylococcus aureus [7]) [µg/mL],MIC (Candida albicans [8]) [µg/mL],SMILES,zone of inhibition at 1000 µg/mL (Pseudomonas aeruginosa [2]) [mm],zone of inhibition at 1000 µg/mL (Staphylococcus aureus [3]) [mm],zone of inhibition at 1000 µg/mL (Candida albicans [4]) [mm],zone of inhibition at 1000 µg/mL (Escherichia coli [5]) [mm],inhibition of growth at 10 µM (TK-10) [%],inhibition of growth at 10 µM (IGROV-1) [%],inhibition of growth at 10 µM (SK-MEL-2) [%],inhibition of growth at 10 µM (SF-295) [%]
125,–,–,–,CCCn1cnc2sc(C(N)=O)c(C)c2c1=O,12,10,15,17,–,–,–,–
–,–,–,–,Cc1c(C(N)=O)sc2ncn(-c3ccccn3)c(=O)c12,12,10,15,13,–,–,–,–
–,–,–,–,Cc1c(C(N)=O)sc2nc(SCc3ccccc3)n(-c3ccccc3)c(=O)c12,12,10,15,15,–,–,–,–
–,–,–,–,Cc1c(C(N)=O)sc2nc(S(C)(=O)=O)n(-c3ccccc3)c(=O)c12,12,11,15,16,–,–,–,–
–,–,–,–,CCS(=O)(=O)c1nc2sc(C(N)=O)c(C)c2c(=O)n1-c1ccccc1,12,10,15,13,–,–,–,–
–,–,–,–,Cc1c(C(N)=O)sc2nc(S(=O)(=O)Cc3ccccc3)n(-c3ccccc3)c(=O)c12,12,10,15,15,–,–,–,–
–,125,–,–,Cc1c(C(N)=O)sc2nc(SCC3CO3)n(-c3ccccc3)c(=O)c12 (stereo not drawn),17,10,15,15,–,–,–,–
–,–,–,–,Cc1c(C(N)=O)sc2nc(SCC(O)CN3CCOCC3)n(-c3ccccc3)c(=O)c12 (stereo not drawn),12,10,15,13,–,–,–,–
–,–,–,–,Cc1c(C(N)=O)sc2nc(SCC(O)CN3CCCCC3)n(-c3ccccc3)c(=O)c12 (stereo not drawn),12,10,15,15,–,–,–,–
–,–,–,–,Cc1c(C(N)=O)sc2nc(C)n(NC(=S)NCc3ccccc3)c(=O)c12,12,12,15,13,–,–,–,–
125,–,–,–,Cc1c(C(N)=O)sc2nc(C)n(/N=c3\scc(-c4ccc(Cl)cc4)n3-c3ccccc3)c(=O)c12,12,10,15,16,–,–,–,–
–,–,–,–,Cc1c(C(N)=O)sc2nc(C)n(/N=c3\scc(-c4ccc(Br)cc4)n3-c3ccccc3)c(=O)c12,12,10,15,15,–,–,–,–
–,125,–,–,Cc1c(C(N)=O)sc2nc(C)n(/N=c3\scc(-c4ccc(Cl)cc4)n3Cc3ccccc3)c(=O)c12,17,10,15,15,–,–,–,–
–,–,–,–,Cc1c(C(N)=O)sc2nc(C)n(/N=c3\scc(-c4ccc(Br)cc4)n3Cc3ccccc3)c(=O)c12,12,11,15,15,–,–,–,–
–,–,250,–,Cc1c(C(N)=O)sc2nc(C)n(/N=C3\SCC(=O)N3c3ccccc3)c(=O)c12,12,14,16,15,–,–,–,–
–,–,250,–,Cc1c(C(N)=O)sc2nc(C)n(/N=C3\SCC(=O)N3Cc3ccccc3)c(=O)c12,12,14,16,15,–,–,–,–
–,–,–,–,Cc1c(C(N)=O)sc2nc(S)n(-c3ccccc3)c(=O)c12,12,12,15,15,–,–,–,–

MIC (Escherichia coli [1]) [µg/mL],MIC (Pseudomonas aeruginosa [6]) [µg/mL],MIC (Staphylococcus aureus [7]) [µg/mL],MIC (Candida albicans [8]) [µg/mL],SMILES,zone of inhibition at 1000 µg/mL (Pseudomonas aeruginosa [2]) [mm],zone of inhibition at 1000 µg/mL (Staphylococcus aureus [3]) [mm],zone of inhibition at 1000 µg/mL (Candida albicans [4]) [mm],zone of inhibition at 1000 µg/mL (Escherichia coli [5]) [mm],inhibition of growth at 10 µM (TK-10) [%],inhibition of growth at 10 µM (IGROV-1) [%],inhibition of growth at 10 µM (SK-MEL-2) [%],inhibition of growth at 10 µM (SF-295) [%]
–,–,–,–,Cc1c(C(N)=O)sc2nc(SCC(=O)Nc3ccccc3)n(-c3ccccc3)c(=O)c12,12,10,15,15,–,–,–,–
–,–,–,–,Cc1c(C(N)=O)sc2nc(SCC(=O)Nc3ccc(Cl)cc3)n(-c3ccccc3)c(=O)c12,12,10,15,15,47.2,79.4,116,–
–,–,–,–,Cc1ccc(NC(=O)CSc2nc3sc(C(N)=O)c(C)c3c(=O)n2-c2ccccc2)cc1,12,10,15,15,–,–,–,–
–,–,250,–,CC(=O)CSc1nc2sc(C(N)=O)c(C)c2c(=O)n1-c1ccccc1,12,13,15,15,–,–,–,–
–,–,–,–,CCOC(=O)CSc1nc2sc(C(N)=O)c(C)c2c(=O)n1-c1ccccc1,12,10,15,13,–,–,–,–
–,–,–,–,CSc1nc2sc(C(N)=O)c(C)c2c(=O)n1-c1ccccc1,12,10,15,13,–,–,–,–
–,–,–,–,CCSc1nc2sc(C(N)=O)c(C)c2c(=O)n1-c1ccccc1,12,10,15,16,–,–,–,–
–,–,–,–,Cc1c(C(N)=O)sc2nc[nH]c(=O)c12,12,10,15,13,–,–,–,–
–,–,–,–,Cc1c(C(N)=O)sc2ncn(Cc3ccccc3)c(=O)c12,16,10,15,15,–,–,–,–
–,125,–,–,Cc1c(C(N)=O)sc2ncn(CCO)c(=O)c12,17,10,15,15,97.1,–,–,43.8
125,–,–,–,Cc1c(C(N)=O)sc2ncn(C3CCCCC3)c(=O)c12,12,10,15,17,–,–,–,–
125,–,–,–,CCOC(=O)c1c(NC(C)=O)sc(C(N)=O)c1C,12,10,15,16,–,–,–,–
–,125,–,–,Cc1c(C(N)=O)sc2nc(C)n(N)c(=O)c12,17,10,15,15,–,–,–,–
–,–,–,–,Cc1c(C(N)=O)sc2nc(C)n(NC(=S)Nc3ccccc3)c(=O)c12,12,10,15,15,–,–,–,–
7.81,125,3.91,–,CC1(C)S[C@@H]2[C@H](NC(=O)[C@H](N)c3ccccc3)C(=O)N2[C@H]1C(=O)O [AMPICILLIN],18,30,–,26,–,–,–,–
–,–,–,7.81,Clc1ccccc1C(c1ccccc1)(c1ccccc1)n1ccnc1 [CLOTRIMAZOLE],–,–,28,–,–,–,–,–
